According to patent publication US8906925B2, “Pyrido[4,3-B]indoles containing rigid moieties” (Medivation Technologies, Inc., priority 2008, dated 2014):
Where two headings read alike, the source gives them in different places.

Key:
[1] = target: T1, human recombinant histamine H2 receptor (Homo sapiens, UniProt P25021); assay: Histamine H2 radioligand binding ([125I]Aminopotentidine); settings: read-out: Histamine Binding (1 μM) H2, percent inhibition of specific binding, 1 μM
T1 construct: expressed in transfected cells; host or cells: Chinese hamster ovary (CHO) K1 cells
Procedure, shortened: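 Receptor source: human recombinant H2 in CHO-K1 cells, assayed in 50 mM phosphate pH 7.4. Competition against 0.1 nM [125I]aminopotentidine, 120 min, 25 °C; 3 μM tiotidine sets nonspecific binding, filter-bound counts give specific binding.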

[2] = target: T2, human recombinant serotonin (5-Hydroxytryptamine) 5-HT2C receptor (Homo sapiens, UniProt P28335); assay: Serotonin 5-HT2C radioligand binding ([3H]Mesulergine); settings: read-out: Inhibition of ligand binding, Serotonin 5-HT2C (percent inhibition of specific binding); for inhibition at 0.1 µM: compound at 0.1 μM; for inhibition at 1 µM: compound at 1 μM
T2 construct: expressed in transfected cells; host or cells: Chinese hamster ovary (CHO-K1) cells
T2 sequence (P28335 33-458): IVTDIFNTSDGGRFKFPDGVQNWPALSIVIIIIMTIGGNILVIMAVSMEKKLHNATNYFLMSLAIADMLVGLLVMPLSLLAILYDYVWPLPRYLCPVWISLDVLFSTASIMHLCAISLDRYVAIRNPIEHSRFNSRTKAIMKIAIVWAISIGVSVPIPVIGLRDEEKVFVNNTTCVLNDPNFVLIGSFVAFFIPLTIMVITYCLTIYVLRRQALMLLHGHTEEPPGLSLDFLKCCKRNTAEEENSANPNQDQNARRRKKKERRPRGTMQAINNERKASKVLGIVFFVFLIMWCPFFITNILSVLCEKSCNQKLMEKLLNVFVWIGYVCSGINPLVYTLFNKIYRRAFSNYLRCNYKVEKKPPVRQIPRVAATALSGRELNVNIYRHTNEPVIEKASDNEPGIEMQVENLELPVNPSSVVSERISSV
Procedure, shortened: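 Compounds tested at 1 μM or lower (1% DMSO vehicle) for displacement of 1 nM [3H]Mesulergine over 60 min at 25° C. Specific binding determined by filtration counting, with 1 μM Mianserin defining non-specific binding; values are percent inhibition.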

[3] = target: T3, human recombinant serotonin (5-Hydroxytryptamine) 5-HT2A receptor (Homo sapiens, UniProt P28223); assay: Serotonin 5-HT2A radioligand binding ([3H]Ketanserin); settings: for inhibition at 0.1 µM: read-out: Inhibition of ligand binding, Serotonin 5-HT2A (percent inhibition of specific binding), compound at 0.1 μM; for inhibition at 1 µM: read-out: Inhibition of ligand binding, Serotonin 5-HT2A (percent inhibition of specific binding), compound at 1 μM
T3 construct: expressed in transfected cells; host or cells: Chinese hamster ovary (CHO-K1) cells
Description: Compounds of the invention were incubated with 0.5 nM [^3H]Ketanserin for 60 min. at 25° C. Non-specific binding was estimated in the presence of 1 μM Mianserin. Receptor proteins were filtered and washed, the filters were then counted to determine [^3H]Ketanserin specifically bound.

[4] = target: T4, human recombinant adrenergic α2B receptor (Homo sapiens, UniProt P18089); assay: Adrenergic α2B radioligand binding ([3H]Rauwolscine); settings: compound at 1 μM
T4 construct: expressed in transfected cells; host or cells: Chinese hamster ovary (CHO-K1) cells
T4 sequence (P18089 1-450): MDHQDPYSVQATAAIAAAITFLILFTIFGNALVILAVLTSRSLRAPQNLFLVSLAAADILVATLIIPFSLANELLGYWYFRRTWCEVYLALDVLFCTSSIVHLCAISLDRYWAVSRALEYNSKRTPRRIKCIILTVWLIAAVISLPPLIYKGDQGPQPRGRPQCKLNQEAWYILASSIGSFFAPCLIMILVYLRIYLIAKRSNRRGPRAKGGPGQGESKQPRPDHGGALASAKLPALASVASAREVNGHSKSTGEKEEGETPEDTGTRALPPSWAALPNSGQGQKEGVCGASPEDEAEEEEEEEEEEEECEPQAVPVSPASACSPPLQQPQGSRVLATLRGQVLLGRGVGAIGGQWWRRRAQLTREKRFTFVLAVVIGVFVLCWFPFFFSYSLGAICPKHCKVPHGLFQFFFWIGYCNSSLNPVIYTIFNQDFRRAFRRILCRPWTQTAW
Description: To evaluate in radioligand binding assays the activity of compounds of the invention, human recombinant adrenergic α2B receptor expressed in Chinese hamster ovary (CHO-K1) cells (Uhlen S et al. Eur J Pharmacol. 343(1):93, 1998) in a modified Tris-HCl buffer (50 mM Tris-HCl, pH 7.4, 12.5 mM MgCl2, 1 mM EDTA, 0.2% BSA) was used. Compounds of the invention were incubated with 2.5 nM [^3H]Rauwolscine for 60 min. at 25° C. Non-specific binding was estimated in the presence of 10 μM Prozosin. Receptor proteins were filtered and washed, the filters were then counted to determine [^3H]Rauwolscine specifically bound. Compounds were screened at 1 μM or lower, using 1% DMSO as vehicle. Biochemical assay results are presented as the percent inhibition of specific binding in Table 9.

histamine receptor H1 = histamine receptor H1 (Homo sapiens, UniProt P35367); assay: Histamine H1 radioligand binding ([3H]Pyrilamine); settings: for inhibition at 1 µM: read-out: Histamine Binding (1 μM) H1, percent inhibition of specific binding, 1 μM
Procedure, shortened: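 Values are percent inhibition of specific [3H]pyrilamine (1.2 nM) binding with compounds at ≤1 μM (1% DMSO vehicle); 180 min incubation at 25 °C, pH 7.4 Tris buffer, on CHO-expressed human H1 receptor; 1 μM pyrilamine defined nonspecific binding, bound ligand counted after filtration.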

[5] = percent inhibition of specific binding, read-out: Inhibition of ligand binding, Adrenergic α2B
[6] = […] [3H]Rauwolscine, read-out: Inhibition of ligand binding, Adrenergic α2B (percent inhibition of specific binding)

T3 sequence (P28223 whole entry): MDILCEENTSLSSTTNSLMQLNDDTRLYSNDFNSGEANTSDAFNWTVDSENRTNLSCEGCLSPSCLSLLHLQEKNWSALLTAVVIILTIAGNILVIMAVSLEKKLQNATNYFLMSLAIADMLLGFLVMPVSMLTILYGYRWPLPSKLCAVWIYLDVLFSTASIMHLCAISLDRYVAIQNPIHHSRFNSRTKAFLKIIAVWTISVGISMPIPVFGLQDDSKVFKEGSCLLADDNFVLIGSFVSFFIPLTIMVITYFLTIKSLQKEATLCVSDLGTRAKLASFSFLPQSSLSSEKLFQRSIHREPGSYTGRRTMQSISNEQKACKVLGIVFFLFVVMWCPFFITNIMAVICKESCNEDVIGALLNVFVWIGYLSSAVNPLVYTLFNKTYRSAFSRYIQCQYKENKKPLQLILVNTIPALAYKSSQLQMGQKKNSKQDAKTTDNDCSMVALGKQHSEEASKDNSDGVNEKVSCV
T1 sequence (P25021 whole entry): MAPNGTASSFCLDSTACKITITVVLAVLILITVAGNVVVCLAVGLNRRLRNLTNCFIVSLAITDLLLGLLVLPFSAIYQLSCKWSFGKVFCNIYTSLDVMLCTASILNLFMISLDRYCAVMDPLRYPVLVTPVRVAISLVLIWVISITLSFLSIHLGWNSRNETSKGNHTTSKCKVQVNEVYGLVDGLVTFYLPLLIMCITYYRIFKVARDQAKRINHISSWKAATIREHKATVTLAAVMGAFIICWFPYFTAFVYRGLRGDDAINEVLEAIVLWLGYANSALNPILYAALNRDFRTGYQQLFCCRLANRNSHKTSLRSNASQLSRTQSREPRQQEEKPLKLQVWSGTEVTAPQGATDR
histamine receptor H1, sequence (P35367 whole entry): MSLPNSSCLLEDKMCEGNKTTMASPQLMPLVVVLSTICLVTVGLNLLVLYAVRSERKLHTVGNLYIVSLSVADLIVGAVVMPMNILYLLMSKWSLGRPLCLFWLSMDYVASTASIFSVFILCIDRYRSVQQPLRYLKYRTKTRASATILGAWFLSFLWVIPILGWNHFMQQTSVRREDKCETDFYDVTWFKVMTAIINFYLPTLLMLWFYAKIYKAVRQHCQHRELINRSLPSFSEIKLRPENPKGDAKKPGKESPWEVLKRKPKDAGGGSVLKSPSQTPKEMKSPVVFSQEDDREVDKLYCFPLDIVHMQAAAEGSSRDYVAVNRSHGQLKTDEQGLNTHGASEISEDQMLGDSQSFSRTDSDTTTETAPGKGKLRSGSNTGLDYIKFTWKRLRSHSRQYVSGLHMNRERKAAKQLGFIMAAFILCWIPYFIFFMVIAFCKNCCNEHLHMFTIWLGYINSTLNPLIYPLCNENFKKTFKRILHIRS

In the case of `C/C(=C\n1c2c(c3cc(Cl)ccc31)CN(C)CC2)c1ccncc1` [Compound 90, (E)-8-chloro-2,3,4,5-tetrahydro-2-methyl-5-(2-(pyridin-4-yl)prop-1-enyl)-1H-pyrido[4,3-b]indole], the inhibition at 1 µM [1] is reported as 60%, the inhibition at 0.1 µM [2] is reported as 85% and the inhibition at 1 µM [2] is reported as 97%. It also gave an inhibition at 0.1 µM [3] of 97%, an inhibition at 1 µM [3] of 100% and an inhibition at 1 µM [4, 5] of 104%. The “Histamine Binding (1 μM) H1, percent inhibition of specific binding” value (histamine receptor H1) was 59% and the inhibition at 1 µM (histamine receptor H1) was 48%.

`CN1CCc2c(c3cc(Cl)ccc3n2CC(O)(c2ccc(F)cc2)C2CCC2)C1` (centres unmarked) [Compound 177, 2-(8-chloro-2-methyl-3,4-dihydro-1H-pyrido[4,3-b]indol-5(2H)-yl)-1-cyclobutyl-1-(4-fluorophenyl)ethanol] showed an inhibition at 1 µM [1] of 101%, an inhibition at 1 µM [2] of 95% and an inhibition at 1 µM [3] of 97%. The inhibition at 1 µM [4, 5] was 94% and the inhibition at 1 µM (histamine receptor H1) was 83%.

In the case of `CN1CCc2c(c3cc(Cl)ccc3n2/C=C(\c2ccc(F)cc2)C2CC2)C1` [Compound 203, (Z)-8-chloro-5-(2-cyclopropyl-2-(4-fluorophenyl)vinyl)-2-methyl-2,3,4,5-tetrahydro-1H-pyrido[4,3-b]indole], the inhibition at 1 µM [1] is reported as 99%, the inhibition at 0.1 µM [2] is reported as 101% and the inhibition at 1 µM [2] is reported as 98%. It also gave an inhibition at 0.1 µM [3] of 98%, an inhibition at 1 µM [3] of 100% and an inhibition at 1 µM [4, 5] of 108%. For the same compound, the “Histamine Binding (1 μM) H1, percent inhibition of specific binding” value (histamine receptor H1) was 72% and the inhibition at 1 µM (histamine receptor H1) was 64%.

In the case of `Cc1ccc2c(c1)c1c(n2CC(O)(c2ccc(F)cc2)C2CCCCC2)CCN(C)C1` (centres unmarked) [Compound 171, 1-cyclohexyl-2-(2,8-dimethyl-3,4-dihydro-1H-pyrido[4,3-b]indol-5(2H)-yl)-1-(4-fluorophenyl)ethanol], the inhibition at 1 µM [1] is reported as 85%, the inhibition at 0.1 µM [2] is reported as 51% and the inhibition at 1 µM [2] is reported as 98%. It also gave an inhibition at 0.1 µM [3] of 60%, an inhibition at 1 µM [3] of 97% and an inhibition at 1 µM [4, 5] of 86%. For the same compound, the inhibition at 1 µM (histamine receptor H1) was 13%.

With `CN1CCc2c(c3cc(Cl)ccc3n2C#Cc2ccc(F)cc2)C1` [Compound No. 475, 8-chloro-5-((4-fluorophenyl)ethynyl)-2-methyl-2,3,4,5-tetrahydro-1H-pyrido[4,3-b]indole] the inhibition at 1 µM [1] was 91%, the inhibition at 1 µM [2] was 96% and the inhibition at 1 µM [3] was 99%. For the same compound, the inhibition at 1 µM [4, 6] was 106% and the inhibition at 1 µM (histamine receptor H1) was 34%.

`Cc1ccc2c(c1)c1c(n2CC(O)c2ccc(C)nc2)CCN(C)C1` (centres unmarked) [Compound 48, 2-(2,8-dimethyl-3,4-dihydro-1H-pyrido[4,3-b]indol-5(2H)-yl)-1-(6-methylpyridin-3-yl)ethanol] gave an inhibition at 1 µM [1] of 47%, an inhibition at 1 µM [2] of 67% and an inhibition at 1 µM [3] of 73%. It also gave an inhibition at 1 µM [4, 5] of 100% and an inhibition at 1 µM (histamine receptor H1) of 93%.

`CN1CCc2c(c3cc(Cl)ccc3n2C2=C(c3cccnc3)CCCC2)C1` [Compound No. 166, 8-chloro-2-methyl-5-(2-(pyridin-3-yl)cyclohex-1-enyl)-2,3,4,5-tetrahydro-1H-pyrido[4,3-b]indole] gave an inhibition at 1 µM [1] of 56%, an inhibition at 1 µM [2] of 46% and an inhibition at 1 µM [3] of 46%. For the same compound, the inhibition at 1 µM [4, 5] was 63% and the inhibition at 1 µM (histamine receptor H1) was 14%.

Compound `CN1CCc2c(c3cc(Cl)ccc3n2C/C=C/c2ccc(F)cc2)C1` [Compound 126, 5-(4-fluorocinnamyl)-8-chloro-2,3,4,5-tetrahydro-2-methyl-1H-pyrido[4,3-b]indole] has an inhibition at 1 µM [1] of 85%, an inhibition at 1 µM [2] of 84% and an inhibition at 1 µM [3] of 102%. It also gave an inhibition at 1 µM [4, 5] of 116% and an inhibition at 1 µM (histamine receptor H1) of 103%.

In the case of `C/C(=C\n1c2c(c3cc(C)ccc31)CN(C)CC2)c1ccc(Cl)cc1` [Compound 211, (E)-5-(2-(4-chlorophenyl)prop-1-enyl)-2,8-dimethyl-2,3,4,5-tetrahydro-1H-pyrido[4,3-b]indole], the inhibition at 1 µM [1] is reported as 100%, the inhibition at 0.1 µM [2] is reported as 98% and the inhibition at 1 µM [2] is reported as 107%. For the same compound, the inhibition at 0.1 µM [3] was 97%, the inhibition at 1 µM [3] was 99% and the inhibition at 1 µM [4, 5] was 114%. For the same compound, the “Histamine Binding (1 μM) H1, percent inhibition of specific binding” value (histamine receptor H1) was 54% and the inhibition at 1 µM (histamine receptor H1) was 53%.

`Cc1ccc2c(c1)c1c(n2C#Cc2ccc(F)cc2)CCN(C)C1` [Compound No. 478, 5-((4-fluorophenyl)ethynyl)-2,8-dimethyl-2,3,4,5-tetrahydro-1H-pyrido[4,3-b]indole] gave an inhibition at 1 µM [1] of 94%, an inhibition at 1 µM [2] of 110% and an inhibition at 1 µM [3] of 99%. It also gave an inhibition at 1 µM [4, 6] of 106% and an inhibition at 1 µM (histamine receptor H1) of 28%.

In the case of `CNC(=O)c1ccc2c(c1)c1c(n2C#Cc2ccc(F)cc2)CCN(C)C1` [Compound No. 483, 5-((4-fluorophenyl)ethynyl)-N,2-dimethyl-2,3,4,5-tetrahydro-1H-pyrido[4,3-b]indole-8-carboxamide], the inhibition at 1 µM [1] is reported as 10%, the inhibition at 1 µM [2] is reported as 35% and the inhibition at 1 µM [3] is reported as 34%. It also gave an inhibition at 1 µM [4, 6] of 14% and an inhibition at 1 µM (histamine receptor H1) of -1%.

Compound `Cc1ccc2c(c1)c1c(n2CC(C)(O)c2ccc(F)cc2)CCN(C)C1` (centres unmarked) [Compound 55, 2-(4-fluorophenyl)-1-(1,2,3,4-tetrahydro-2,8-dimethylpyrido[4,3-b]indol-5-yl)propan-2-ol] has an inhibition at 1 µM [1] of 88%, an inhibition at 1 µM [2] of 93% and an inhibition at 1 µM [3] of 100%. The inhibition at 1 µM [4, 5] was 108% and the inhibition at 1 µM (histamine receptor H1) was 91%.

Work on `Cc1ccc2c(c1)c1c(n2CC(O)(c2ccccc2)c2ccc(F)cc2)CCN(C)C1` (centres unmarked) [Compound No. 176, 2-(2,8-dimethyl-3,4-dihydro-1H-pyrido[4,3-b]indol-5(2H)-yl)-1-(4-fluorophenyl)-1-phenylethanol] yielded an inhibition at 1 µM [1] of 74%, an inhibition at 1 µM [2] of 99% and an inhibition at 1 µM [3] of 97%. It also gave an inhibition at 1 µM [4, 5] of 95% and an inhibition at 1 µM (histamine receptor H1) of 21%.

With `CN1CCc2c(c3cc(Cl)ccc3n2CC(C)(O)c2ccc(F)cc2)C1` (centres unmarked) [Compound 45, 1-(8-chloro-1,2,3,4-tetrahydro-2-methylpyrido[4,3-b]indol-5-yl)-2-(4-fluorophenyl)propan-2-ol] the inhibition at 1 µM [1] was 94%, the inhibition at 0.1 µM [2] was 88% and the inhibition at 1 µM [2] was 95%. For the same compound, the inhibition at 0.1 µM [3] was 86%, the inhibition at 1 µM [3] was 99% and the inhibition at 1 µM [4, 5] was 109%. The “Histamine Binding (1 μM) H1, percent inhibition of specific binding” value (histamine receptor H1) was 73% and the inhibition at 1 µM (histamine receptor H1) was 65%.

`C/C(=C\n1c2c(c3cc(Cl)ccc31)CN(C)CC2)c1ccccc1` [compound 106, (E)-8-chloro-2,3,4,5-tetrahydro-2-methyl-5-(2-phenylprop-1-enyl)-1H-pyrido[4,3-b]indole] showed an inhibition at 1 µM [1] of 99%, an inhibition at 1 µM [2] of 98% and an inhibition at 1 µM [3] of 98%. The inhibition at 1 µM [4, 5] was 114% and the inhibition at 1 µM (histamine receptor H1) was 84%.
